Measured values published in US20030105595A1, “Chi square tests for gene expression” (priority 2001, published 2003).

Tests used:
Experiment in all cases: multi-sample expression analysis, band intensity
Format in all cases: in vivo
Settings in all cases: Pooled
band b1i0_53.0 = system: band b1i0_53.0
Excerpt: (§1) To practice the invention, one skilled in the art obtains a source of biological samples, as well as expression information about the biological samples, i.e., expression information relative to one or more genes or polypeptides encoded therein. Data is collected for a particular phenotype appearing within a given population under study, whereby expression of that phenotype is to be determined within the biological sample under study. The phenotype is correlated to a specific genotype, which is then represented as a band with a given intentity, thus indicative of gene expression levels, and is then compared to control samples. Alternatively, the response of a gene to dosage with one or more drugs is determined by band intensity. The standard deviation from the mean (StdDev) is calculated for the control samples, and is fit to functional form in the following equation: […]
(§2) A multi-sample expression analysis was run using the program described in Example 1. For each drug run, only runs for genes producing bands with a p-value<10^−5 in at least 2 of the following 3 comparisons were selected: low dose versus vehicle, high dose versus vehicle and low dose versus high dose. […] Since clusters found using all 13K bands included some of the best 2K bands, it was concluded that no essential signal was lost (see FIGS. 3 and 4). […] A comparison using the same analytic tests on only the best 2K bands. It can be seen that the Chi Square metric provides a better distinction between low and high doses than the correlation metric, which is not able to distinguish between the low dose and the high dose (see FIG. 6). The low-dose/high dose statistical variation is more pronounced when only the best 2K bands are selected.

band b1i0_60.7 = system: band b1i0_60.7
Excerpt: as §1, §2

band b1i0_62.5 = system: band b1i0_62.5
Excerpt: as §1, §2

band b1i0_51.7 = system: band b1i0_51.7
Excerpt: as §1, §2

band b1i0_63.7 = system: band b1i0_63.7
Excerpt: as §1, §2

band b1i0_54.5 = system: band b1i0_54.5
Excerpt: as §1, §2

band b1i0_57.4 = system: band b1i0_57.4
Excerpt: as §1, §2

band b1i0_69.4 = system: band b1i0_69.4
Excerpt: as §1, §2

With `CC(=O)[C@@]1(O)CC[C@H]2[C@@H]3C=C(Cl)C4=CC(=O)[C@@H]5C[C@@H]5[C@]4(C)[C@H]3CC[C@@]21C` [Cyproterone] the “band intensity b1i0_53.0” value (band b1i0_53.0; High dose, 1d) was 93.39, the “band intensity b1i0_53.0” value (band b1i0_53.0; High dose, 3d) was 99.72 and the “band intensity b1i0_53.0” value (band b1i0_53.0; High dose, 7d) was 99.01. The “band intensity b1i0_53.0” value (band b1i0_53.0; High dose, 14d) was 40.97, the “band intensity b1i0_53.0” value (band b1i0_53.0; Low dose, 1d) was 111.6 and the “band intensity b1i0_53.0” value (band b1i0_53.0; Low dose, 3d) was 99.85. The “band intensity b1i0_53.0” value (band b1i0_53.0; Low dose, 7d) was 99.01, the “band intensity b1i0_60.7” value (band b1i0_60.7; High dose, 1d) was 53.9 and the “band intensity b1i0_60.7” value (band b1i0_60.7; High dose, 3d) was 46.42. The “band intensity b1i0_60.7” value (band b1i0_60.7; High dose, 7d) was 73.61, the “band intensity b1i0_60.7” value (band b1i0_60.7; High dose, 14d) was 57.48 and the “band intensity b1i0_60.7” value (band b1i0_60.7; Low dose, 1d) was 76.15. For the same compound, the “band intensity b1i0_60.7” value (band b1i0_60.7; Low dose, 3d) was 72.42, the “band intensity b1i0_60.7” value (band b1i0_60.7; Low dose, 7d) was 80.22 and the “band intensity b1i0_62.5” value (band b1i0_62.5; High dose, 1d) was 49.19. The “band intensity b1i0_62.5” value (band b1i0_62.5; High dose, 3d) was 64.93, the “band intensity b1i0_62.5” value (band b1i0_62.5; High dose, 7d) was 71.82 and the “band intensity b1i0_62.5” value (band b1i0_62.5; High dose, 14d) was 148.3. The “band intensity b1i0_62.5” value (band b1i0_62.5; Low dose, 1d) was 62.41, the “band intensity b1i0_62.5” value (band b1i0_62.5; Low dose, 3d) was 59.37 and the “band intensity b1i0_62.5” value (band b1i0_62.5; Low dose, 7d) was 70.85. For the same compound, the “band intensity b1i0_51.7” value (band b1i0_51.7; High dose, 1d) was 35.07, the “band intensity b1i0_51.7” value (band b1i0_51.7; High dose, 3d) was 32.34 and the “band intensity b1i0_51.7” value (band b1i0_51.7; High dose, 7d) was 22.63. The “band intensity b1i0_51.7” value (band b1i0_51.7; High dose, 14d) was 19.9, the “band intensity b1i0_51.7” value (band b1i0_51.7; Low dose, 1d) was 19.27 and the “band intensity b1i0_51.7” value (band b1i0_51.7; Low dose, 3d) was 21.87. The “band intensity b1i0_51.7” value (band b1i0_51.7; Low dose, 7d) was 12.77, the “band intensity b1i0_63.7” value (band b1i0_63.7; High dose, 1d) was 51.36 and the “band intensity b1i0_63.7” value (band b1i0_63.7; High dose, 3d) was 111.8. The “band intensity b1i0_63.7” value (band b1i0_63.7; High dose, 7d) was 154.7, the “band intensity b1i0_63.7” value (band b1i0_63.7; High dose, 14d) was 18.52 and the “band intensity b1i0_63.7” value (band b1i0_63.7; Low dose, 1d) was 68.2. For the same compound, the “band intensity b1i0_63.7” value (band b1i0_63.7; Low dose, 3d) was 110.4, the “band intensity b1i0_63.7” value (band b1i0_63.7; Low dose, 7d) was 146 and the “band intensity b1i0_54.5” value (band b1i0_54.5; High dose, 1d) was 98.48. The “band intensity b1i0_54.5” value (band b1i0_54.5; High dose, 3d) was 80.83, the “band intensity b1i0_54.5” value (band b1i0_54.5; High dose, 7d) was 81.21 and the “band intensity b1i0_54.5” value (band b1i0_54.5; High dose, 14d) was 69.78. The “band intensity b1i0_54.5” value (band b1i0_54.5; Low dose, 1d) was 94.41, the “band intensity b1i0_54.5” value (band b1i0_54.5; Low dose, 3d) was 93.73 and the “band intensity b1i0_54.5” value (band b1i0_54.5; Low dose, 7d) was 98.2. For the same compound, the “band intensity b1i0_57.4” value (band b1i0_57.4; High dose, 1d) was 1105, the “band intensity b1i0_57.4” value (band b1i0_57.4; High dose, 3d) was 1021 and the “band intensity b1i0_57.4” value (band b1i0_57.4; High dose, 7d) was 1105. For the same compound, the “band intensity b1i0_57.4” value (band b1i0_57.4; High dose, 14d) was 775.5, the “band intensity b1i0_57.4” value (band b1i0_57.4; Low dose, 1d) was 1285 and the “band intensity b1i0_57.4” value (band b1i0_57.4; Low dose, 3d) was 1338. The “band intensity b1i0_57.4” value (band b1i0_57.4; Low dose, 7d) was 1437, the “band intensity b1i0_69.4” value (band b1i0_69.4; High dose, 1d) was 254.9 and the “band intensity b1i0_69.4” value (band b1i0_69.4; High dose, 3d) was 250.7. For the same compound, the “band intensity b1i0_69.4” value (band b1i0_69.4; High dose, 7d) was 317.9, the “band intensity b1i0_69.4” value (band b1i0_69.4; High dose, 14d) was 528.3 and the “band intensity b1i0_69.4” value (band b1i0_69.4; Low dose, 1d) was 243.2. The “band intensity b1i0_69.4” value (band b1i0_69.4; Low dose, 3d) was 270.7 and the “band intensity b1i0_69.4” value (band b1i0_69.4; Low dose, 7d) was 326.3.

With `Cc1cc(C(C)(C)C)c(O)c(C(C)(C)C)c1` [BHT] the “band intensity b1i0_53.0” value (band b1i0_53.0; High dose, 1d) was 104.3, the “band intensity b1i0_53.0” value (band b1i0_53.0; High dose, 3d) was 101.7 and the “band intensity b1i0_53.0” value (band b1i0_53.0; High dose, 7d) was 104.1. For the same compound, the “band intensity b1i0_53.0” value (band b1i0_53.0; High dose, 14d) was 82.87, the “band intensity b1i0_53.0” value (band b1i0_53.0; Low dose, 1d) was 108.8 and the “band intensity b1i0_53.0” value (band b1i0_53.0; Low dose, 3d) was 87.18. The “band intensity b1i0_53.0” value (band b1i0_53.0; Low dose, 7d) was 104.5, the “band intensity b1i0_53.0” value (band b1i0_53.0; Low dose, 14d) was 96.38 and the “band intensity b1i0_60.7” value (band b1i0_60.7; High dose, 1d) was 71.52. For the same compound, the “band intensity b1i0_60.7” value (band b1i0_60.7; High dose, 3d) was 70.09, the “band intensity b1i0_60.7” value (band b1i0_60.7; High dose, 7d) was 62.31 and the “band intensity b1i0_60.7” value (band b1i0_60.7; High dose, 14d) was 68.41. The “band intensity b1i0_60.7” value (band b1i0_60.7; Low dose, 1d) was 72.36, the “band intensity b1i0_60.7” value (band b1i0_60.7; Low dose, 3d) was 69.13 and the “band intensity b1i0_60.7” value (band b1i0_60.7; Low dose, 7d) was 79.01. For the same compound, the “band intensity b1i0_60.7” value (band b1i0_60.7; Low dose, 14d) was 90.11, the “band intensity b1i0_62.5” value (band b1i0_62.5; High dose, 1d) was 81.06 and the “band intensity b1i0_62.5” value (band b1i0_62.5; High dose, 3d) was 56.24. For the same compound, the “band intensity b1i0_62.5” value (band b1i0_62.5; High dose, 7d) was 81.59, the “band intensity b1i0_62.5” value (band b1i0_62.5; High dose, 14d) was 57.74 and the “band intensity b1i0_62.5” value (band b1i0_62.5; Low dose, 1d) was 74.66. The “band intensity b1i0_62.5” value (band b1i0_62.5; Low dose, 3d) was 70.37, the “band intensity b1i0_62.5” value (band b1i0_62.5; Low dose, 7d) was 62.54 and the “band intensity b1i0_62.5” value (band b1i0_62.5; Low dose, 14d) was 63.7. The “band intensity b1i0_51.7” value (band b1i0_51.7; High dose, 1d) was 24.21, the “band intensity b1i0_51.7” value (band b1i0_51.7; High dose, 3d) was 25.0702 and the “band intensity b1i0_51.7” value (band b1i0_51.7; High dose, 7d) was 17.72. For the same compound, the “band intensity b1i0_51.7” value (band b1i0_51.7; High dose, 14d) was 26.78, the “band intensity b1i0_51.7” value (band b1i0_51.7; Low dose, 1d) was 18.78 and the “band intensity b1i0_51.7” value (band b1i0_51.7; Low dose, 3d) was 18.02. For the same compound, the “band intensity b1i0_51.7” value (band b1i0_51.7; Low dose, 7d) was 12.13, the “band intensity b1i0_51.7” value (band b1i0_51.7; Low dose, 14d) was 18.31 and the “band intensity b1i0_63.7” value (band b1i0_63.7; High dose, 1d) was 240.7. For the same compound, the “band intensity b1i0_63.7” value (band b1i0_63.7; High dose, 3d) was 120.1, the “band intensity b1i0_63.7” value (band b1i0_63.7; High dose, 7d) was 313.4 and the “band intensity b1i0_63.7” value (band b1i0_63.7; High dose, 14d) was 41.88. The “band intensity b1i0_63.7” value (band b1i0_63.7; Low dose, 1d) was 152.6, the “band intensity b1i0_63.7” value (band b1i0_63.7; Low dose, 3d) was 171.4 and the “band intensity b1i0_63.7” value (band b1i0_63.7; Low dose, 7d) was 132.3. For the same compound, the “band intensity b1i0_63.7” value (band b1i0_63.7; Low dose, 14d) was 161.6, the “band intensity b1i0_54.5” value (band b1i0_54.5; High dose, 1d) was 82.82 and the “band intensity b1i0_54.5” value (band b1i0_54.5; High dose, 3d) was 96.92. The “band intensity b1i0_54.5” value (band b1i0_54.5; High dose, 7d) was 81.74, the “band intensity b1i0_54.5” value (band b1i0_54.5; High dose, 14d) was 93.42 and the “band intensity b1i0_54.5” value (band b1i0_54.5; Low dose, 1d) was 93.97. The “band intensity b1i0_54.5” value (band b1i0_54.5; Low dose, 3d) was 101.5, the “band intensity b1i0_54.5” value (band b1i0_54.5; Low dose, 7d) was 92.42 and the “band intensity b1i0_54.5” value (band b1i0_54.5; Low dose, 14d) was 91.73. For the same compound, the “band intensity b1i0_57.4” value (band b1i0_57.4; High dose, 1d) was 1177, the “band intensity b1i0_57.4” value (band b1i0_57.4; High dose, 3d) was 1235 and the “band intensity b1i0_57.4” value (band b1i0_57.4; High dose, 7d) was 990.2. The “band intensity b1i0_57.4” value (band b1i0_57.4; High dose, 14d) was 1049, the “band intensity b1i0_57.4” value (band b1i0_57.4; Low dose, 1d) was 1182 and the “band intensity b1i0_57.4” value (band b1i0_57.4; Low dose, 3d) was 1224. For the same compound, the “band intensity b1i0_57.4” value (band b1i0_57.4; Low dose, 7d) was 1156, the “band intensity b1i0_57.4” value (band b1i0_57.4; Low dose, 14d) was 1229 and the “band intensity b1i0_69.4” value (band b1i0_69.4; High dose, 1d) was 241.7. The “band intensity b1i0_69.4” value (band b1i0_69.4; High dose, 3d) was 251.2, the “band intensity b1i0_69.4” value (band b1i0_69.4; High dose, 7d) was 255.9 and the “band intensity b1i0_69.4” value (band b1i0_69.4; High dose, 14d) was 268.8. For the same compound, the “band intensity b1i0_69.4” value (band b1i0_69.4; Low dose, 1d) was 272.5, the “band intensity b1i0_69.4” value (band b1i0_69.4; Low dose, 3d) was 190.6 and the “band intensity b1i0_69.4” value (band b1i0_69.4; Low dose, 7d) was 282.9. The “band intensity b1i0_69.4” value (band b1i0_69.4; Low dose, 14d) was 286.5.
